Data: PubChem BioAssay (NCI)
Where “and” joins values, the source holds several entries; their conditions need not be identical. Identical values can stand only once.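 Results reflect a 48-hour exposure of cells in 96-well plates to compound at five concentrations. GI50 = concentration required for 50% inhibition of growth. Definition used: TGI = concentration required for complete inhibition of growth.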

Columns and labels:
Assay in all cases: growth of human tumour cells (NCI), 48 h
[1] = system: 786-0 renal
[2] = system: A498 renal
[3] = system: A549 NSCLC
[4] = system: ACHN renal
[5] = system: BT-549 breast
[6] = system: CAKI-1 renal
[7] = system: CCRF-CEM leukemia
[8] = system: COLO 205 colon
[9] = system: DLD-1 colon
[10] = system: DMS 114 small cell lung
[11] = system: DMS 273 small cell lung
[12] = system: DU-145 prostate
[13] = system: EKVX NSCLC
[14] = system: HCC-2998 colon
[15] = system: HCT-116 colon
[16] = system: HCT-15 colon
[17] = system: HL-60(TB) leukemia
[18] = system: HOP-18 NSCLC
[19] = system: HOP-62 NSCLC
[20] = system: HOP-92 NSCLC
[21] = system: HS 578T breast
[22] = system: HT29 colon
[23] = system: IGROV1 ovarian
[24] = system: K-562 leukemia
[25] = system: KM20L2 colon
[26] = system: LOX IMVI melanoma
[27] = system: LXFL 529 NSCLC
[28] = system: M14 melanoma
[29] = system: M19-MEL melanoma
[30] = system: MALME-3M melanoma
[31] = system: MCF7 breast
[32] = system: MDA-MB-231 breast
[33] = system: MDA-MB-435
[34] = system: MDA-N
[35] = system: MOLT-4 leukemia
[36] = system: NCI-H23 lung
[37] = system: NCI-H460 lung
[38] = system: NCI-H522 lung
[39] = system: NCI/ADR-RES ovarian
[40] = system: OVCAR-3 ovarian
[41] = system: OVCAR-4 ovarian
[42] = system: OVCAR-5 ovarian
[43] = system: OVCAR-8 ovarian
[44] = system: PC-3 prostate
[45] = system: RPMI-8226 leukemia
[46] = system: RXF 393 renal
[47] = system: SF-268 CNS
[48] = system: SF-295 CNS
[49] = system: SF-539 CNS
[50] = system: SK-MEL-28 melanoma
[51] = system: SK-MEL-5 melanoma
[52] = system: SK-OV-3 ovarian
[53] = system: SN12C renal
[54] = system: SNB-19 CNS
[55] = system: SNB-75 CNS
[56] = system: SNB-78 CNS
[57] = system: SR leukemia
[58] = system: SW-620 colon
[59] = system: T-47D breast
[60] = system: TK-10 renal
[61] = system: U251 CNS
[62] = system: UACC-257 melanoma
[63] = system: UO-31 renal
[64] = system: XF 498 CNS
[65] = system: KM12 colon
[66] = system: NCI-H226 lung
[67] = system: RXF-631 renal
[68] = system: UACC-62 melanoma

CN(C)CCNC(=O)c1cccc2cc([N+](=O)[O-])ccc12
GI50 [1]: 1620 nM and 254 nM
TGI [1]: 8140 nM and 3530 nM
GI50 [2]: 1190 nM and 185 nM
TGI [2]: 4530 nM and 910 nM
GI50 [3]: 183 nM
TGI [3]: 2220 nM
GI50 [4]: 384 nM and 127 nM
TGI [4]: 2940 nM and 604 nM
TGI [5]: 13800 nM
TGI [6]: 16400 nM
GI50 [7]: 719 nM and 141 nM
TGI [7]: 6070 nM and 939 nM
GI50 [8]: 893 nM and 217 nM
TGI [9]: 1550 nM
TGI [10]: 743 nM
TGI [11]: 722 nM
TGI [12]: 17100 nM
TGI [13]: 6330 nM and 2280 nM
GI50 [14]: 1540 nM and 213 nM
TGI [14]: 3740 nM and 986 nM
GI50 [15]: 513 nM and 72.4 nM
GI50 [16]: 1710 nM and 196 nM
TGI [16]: 11500 nM and 1380 nM
GI50 [17]: 608 nM and 175 nM
TGI [17]: 3020 nM and 541 nM
TGI [18]: 4400 nM
GI50 [19]: 1190 nM and 224 nM
TGI [19]: 4130 nM and 1230 nM
TGI [20]: 1340 nM
TGI [21]: 7160 nM
GI50 [22]: 681 nM and 189 nM
TGI [22]: 4960 nM and 1070 nM
GI50 [23]: 1790 nM and 245 nM
TGI [23]: 14200 nM and 2320 nM
GI50 [24]: 579 nM and 123 nM
TGI [25]: 722 nM
GI50 [26]: 566 nM and 129 nM
TGI [27]: 1830 nM
GI50 [28]: 1600 nM and 441 nM
TGI [28]: 3320 nM and 1200 nM
TGI [29]: 902 nM
GI50 [30]: 1330 nM and 179 nM
TGI [30]: 2750 nM and 621 nM
TGI [31]: 15300 nM
TGI [32]: 6210 nM
TGI [33]: 7700 nM
TGI [34]: 6230 nM
GI50 [35]: 292 nM and 82.9 nM
TGI [35]: 1250 nM and 407 nM
GI50 [36]: 1690 nM and 211 nM
TGI [36]: 6680 nM and 758 nM
GI50 [37]: 390 nM
TGI [37]: 2050 nM
TGI [38]: 2880 nM
TGI [39]: 5270 nM
GI50 [40]: 2360 nM and 332 nM
TGI [40]: 11700 nM and 2260 nM
GI50 [41]: 2100 nM and 311 nM
TGI [42]: 5470 nM and 870 nM
GI50 [43]: 605 nM and 157 nM
TGI [43]: 7430 nM and 1650 nM
TGI [44]: 9440 nM
TGI [45]: 2290 nM and 705 nM
TGI [46]: 471 nM
GI50 [47]: 1870 nM and 220 nM
TGI [47]: 10900 nM and 1160 nM
GI50 [48]: 989 nM and 414 nM
TGI [48]: 3770 nM and 2660 nM
GI50 [49]: 886 nM and 146 nM
TGI [49]: 2340 nM and 606 nM
GI50 [50]: 1830 nM and 279 nM
TGI [50]: 4200 nM and 977 nM
GI50 [51]: 1650 nM and 213 nM
TGI [51]: 4920 nM and 774 nM
GI50 [52]: 3480 nM and 535 nM
TGI [52]: 33100 nM and 14500 nM
GI50 [53]: 1690 nM and 178 nM
TGI [53]: 7570 nM and 2240 nM
GI50 [54]: 2550 nM and 342 nM
TGI [54]: 16100 nM and 2380 nM
GI50 [55]: 1370 nM and 380 nM
TGI [55]: 5770 nM and 1080 nM
TGI [56]: 1610 nM
TGI [57]: 132 nM
GI50 [58]: 519 nM and 180 nM
TGI [58]: 17700 nM and 5640 nM
TGI [59]: 16300 nM
GI50 [60]: 816 nM and 155 nM
TGI [60]: 4740 nM and 591 nM
GI50 [61]: 2190 nM and 233 nM
TGI [61]: 11900 nM and 2790 nM
TGI [62]: 897 nM
GI50 [63]: 1280 nM and 168 nM
TGI [63]: 4600 nM and 1000 nM
TGI [64]: 1040 nM

COc1ccc(OC)c(/C=C/C(=O)C(C)(C)C)c1
TGI [1]: 36900 nM
TGI [2]: 80000 nM
TGI [3]: 82100 nM
TGI [4]: 39700 nM
TGI [6]: 39100 nM
TGI [7]: 44500 nM
TGI [8]: 33300 nM
TGI [9]: 48400 nM
TGI [10]: 32100 nM
TGI [11]: 50900 nM
TGI [13]: 43900 nM
TGI [14]: 39700 nM
TGI [15]: 31800 nM
TGI [16]: 41200 nM
TGI [17]: 38700 nM
TGI [18]: 38900 nM
TGI [19]: 50800 nM
TGI [20]: 44100 nM
TGI [22]: 64100 nM
TGI [23]: 42600 nM
TGI [24]: 55800 nM
TGI [65]: 52900 nM
TGI [25]: 50300 nM
TGI [26]: 40600 nM
TGI [27]: 36400 nM
TGI [28]: 30200 nM
TGI [29]: 34900 nM
TGI [30]: 45300 nM
TGI [35]: 55100 nM
TGI [66]: 35400 nM
TGI [36]: 40400 nM
TGI [37]: > 100000 nM
TGI [38]: 30400 nM
TGI [40]: 49500 nM
TGI [41]: 49000 nM
TGI [43]: 38000 nM
TGI [45]: 40700 nM
TGI [46]: 34300 nM
TGI [67]: 85100 nM
TGI [48]: 67400 nM
TGI [49]: 38400 nM
TGI [50]: 31800 nM
TGI [51]: 29100 nM
TGI [52]: 90400 nM
TGI [53]: 45400 nM
TGI [54]: 32400 nM
TGI [55]: 56800 nM
TGI [58]: 38600 nM
TGI [60]: 72700 nM
TGI [61]: 43100 nM
TGI [68]: 23400 nM
